Experiment [1] is described as follows: T. cruzi growth inhibition in host cells, dose response, cell-based, plate reader, dry powder, set 2 (AID 652275). The settings on record: T. cruzi proliferation in host cells, plate reader; at 16 µM (top of the series).
Experiment [2] concerns T. cruzi proliferation in host cells, plate reader. The description is as above.

Here are results for eleven compounds from PubChem BioAssay AID652275 (Broad Institute, 2013).

Each structure is given as a SMILES string. Inconclusive results are not listed. Calls of active or inactive are those of the source. No rule for the calls is given here.

`CN(C)CC#Cc1cccc(-c2nc(C(=O)N3CCN(C)CC3)cc3c2[C@H](CCO)N(S(=O)C(C)(C)C)C3)c1` (stereo partly specified): the activity change, negative = inhibition in experiment [1] is 1.54% (inactive). Still for that read-out and setting: the value for `CC(C)N1C[C@@H](C)[C@H](CN(C)C(=O)OC(C)(C)C)Oc2c(C#N)cccc2C1=O` was -37% (inactive); that for `CC(C)N1C[C@@H](CN)Oc2c(NC(=O)c3ccncc3)cccc2C1=O` was -29% (inactive). Still for that read-out and setting: the value for `CN(C)CC#Cc1cccc(-c2nc(C(=O)O)cc3c2[C@H](CCO)N(S(=O)C(C)(C)C)C3)c1` (stereo partly specified) was -23.9% (inactive); that for `CC(C)N1C[C@@H](C)[C@H](CN(C)Cc2ccc(OCCCC(F)(F)C(F)(F)C(F)(F)C(F)(F)C(F)(F)C(F)(F)C(F)(F)C(F)(F)F)cc2)Oc2c(NC(=O)c3ccncc3)cccc2C1=O` was 33.7% (inactive). The same measure, in the same setting: then `C[C@@H](CO)N1CC[C@H](CNC(=O)OC(C)(C)C)Oc2c(cccc2[N+](=O)[O-])C1=O`, with -13.9% (inactive); and `COCCNC(=O)c1cc2c(c(-c3cccc(C#CCN(C)C)c3)n1)[C@H](CCO)N(S(=O)C(C)(C)C)C2` (stereo partly specified), with -35.9% (inactive); and `C[C@@H]1CN([C@@H](C)CO)C(=O)c2cccc(NC(=O)c3ccncc3)c2O[C@H]1CN(C)C`, with 18.7% (inactive). On to `C[C@@H]1CN([C@@H](C)CO)C(=O)c2cccc(NC(=O)c3ccncc3)c2O[C@H]1CN(C)Cc1ccc(Oc2ccccc2)cc1`, for which, in experiment [2], the AC50 is 1.11 nM. `CN(C)CC#Cc1cccc(-c2nc(C(=O)N3CCN(C)CC3)cc3c2[C@@H](CCO)N(S(=O)C(C)(C)C)C3)c1` (stereo partly specified): the activity change, negative = inhibition in experiment [1] is -4.18% (inactive).

`CC(C)N1C[C@@H](C)[C@H](CN(C)Cc2ccc(Oc3ccccc3)cc2)Oc2c(C(=O)O)cccc2C1=O`: the activity change, negative = inhibition in experiment [1] was -33.8% (inactive).

One may read the AC50 as the concentration at which the activity in the assay is half-maximal.
